Measurements taken from US12441689B2 (EpiVario, Inc., priority 2019, dated 2025).

The compounds below were run against human ACSS2 protein (Homo sapiens (Human), UniProt Q9NR19) (assay: ACSS2 Cell-Free Activity Assay (Cell-Free IC50)). Conditions: 10 nM human ACSS2 protein, 90 minutes at 37 C, pyrophosphatase-coupled, Biomol Green absorbance at 620 nm; read-out: ACSS2 Biochemical IC50.
Excerpt: ACSS2 Cell-Free Activity Assay (Cell-Free IC50)

Sequence of human ACSS2 protein (Q9NR19 whole entry): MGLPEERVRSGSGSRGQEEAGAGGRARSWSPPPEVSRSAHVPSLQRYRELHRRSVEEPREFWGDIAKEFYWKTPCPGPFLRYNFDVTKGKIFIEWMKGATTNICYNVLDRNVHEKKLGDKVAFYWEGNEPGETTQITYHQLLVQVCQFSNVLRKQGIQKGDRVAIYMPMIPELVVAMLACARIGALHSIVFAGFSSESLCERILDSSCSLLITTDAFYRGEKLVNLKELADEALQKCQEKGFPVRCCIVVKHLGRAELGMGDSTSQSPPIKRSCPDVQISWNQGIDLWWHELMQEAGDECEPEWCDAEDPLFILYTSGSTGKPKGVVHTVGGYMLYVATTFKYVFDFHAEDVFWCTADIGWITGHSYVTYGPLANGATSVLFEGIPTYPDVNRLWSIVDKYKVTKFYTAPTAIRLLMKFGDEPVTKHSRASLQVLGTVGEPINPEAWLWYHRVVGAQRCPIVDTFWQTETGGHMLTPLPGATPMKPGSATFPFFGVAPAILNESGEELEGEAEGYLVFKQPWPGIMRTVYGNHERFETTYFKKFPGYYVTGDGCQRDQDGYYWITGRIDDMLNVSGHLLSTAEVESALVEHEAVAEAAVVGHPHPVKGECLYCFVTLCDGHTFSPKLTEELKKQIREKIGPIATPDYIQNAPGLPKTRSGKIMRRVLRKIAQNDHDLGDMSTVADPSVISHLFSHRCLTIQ

Compound	IC50 [nM]
CC1=NN(c2ccc(OC(F)F)cc2)C(=O)C1(F)C(=O)Nc1cccc(C(C)(F)F)c1 (stereo not drawn) [Compound 205, N-(3-(1,1-difluoroethyl)phenyl)-1-(4-(difluoromethoxy)phenyl)-4-fluoro-3-methyl-5-oxo-4,5-dihydro-1H-pyrazole-4-carboxamide]	< 1
CC1=NN(c2ccc(OC(F)F)c(-c3cccnc3)c2)C(=O)C1(F)C(=O)Nc1cccc(C(C)(F)F)c1 (stereo not drawn) [Compound 206, N-(3-(1,1-difluoroethyl)phenyl)-1-(4-(difluoromethoxy)-3-(pyridin-3-yl)phenyl)-4-fluoro-3-methyl-5-oxo-4,5-dihydro-1H-pyrazole-4-carboxamide]	< 1
CCC(C)Oc1ccc(N2N=C(C)C(F)(C(=O)Nc3cccc(C(C)(F)F)c3)C2=O)cc1 (stereo not drawn) [Compound 207, N-[3-(1,1-difluoroethyl)phenyl]-4-fluoro-3-methyl-5-oxo-1-(4-sec-butoxyphenyl)pyrazole-4-carboxamide]	< 1
CC1=NN(c2ccc(OC(C)C)cc2)C(=O)C1(F)C(=O)Nc1cccc(C(C)(F)F)c1 (stereo not drawn) [Compound 208, N-(3-(1,1-difluoroethyl)phenyl)-4-fluoro-1-(4-isopropoxyphenyl)-3-methyl-5-oxo-4,5-dihydro-1H-pyrazole-4-carboxamide]	< 1
Cc1nc(-c2ccc(OC(F)F)c(-c3ccccn3)c2)oc1C(=O)Nc1cccc(C(C)(F)F)c1 [Compound 213, N-(3-(1,1-difluoroethyl)phenyl)-2-(4-(difluoromethoxy)-3-(pyridin-2-yl)phenyl)-4-methyloxazole-5-carboxamide]	> 100
CCC(F)(F)c1cccc(NC(=O)c2cc(-c3ccc(OC(F)F)c(-c4ccccc4)c3)[nH]c2C)c1 [Compound 217, 5-[4-(difluoromethoxy)-3-phenyl-phenyl]-N-[3-(1,1-difluoropropyl)phenyl]-2-methyl-1H-pyrrole-3-carboxamide]	> 100
Cc1cc(-c2ccccc2)cc(-c2nc(C)cc(C(=O)Nc3cccc(C(C)(F)F)c3)n2)c1 [Compound 219, N-(3-(1,1-difluoroethyl)phenyl)-6-methyl-2-(5-methyl-[1,1’-biphenyl]-3-yl)pyrimidine-4-carboxamide]	> 100
Cc1oc(-c2ccc(OC(F)F)c(-c3cccnc3)c2)nc1C(=O)Nc1cccc(C(C)(F)F)c1 [Compound 220, N-(3-(1,1-difluoroethyl)phenyl)-2-(4-(difluoromethoxy)-3-(pyridin-3-yl)phenyl)-5-methyloxazole-4-carboxamide]	> 100
CCC(F)(F)c1cccc(NC(=O)c2cc(-c3ccc(OC(F)F)c(-c4ccccc4)n3)[nH]c2C)c1 [Compound 223, 5-(5-(difluoromethoxy)-6-phenylpyridin-2-yl)-N-(3-(1,1-difluoropropyl)phenyl)-2-methyl-1H-pyrrole-3-carboxamide]	> 100
COc1c(Cc2ccc(Cl)cc2)cc(N2N=C(C)C(C(=O)Nc3cccc(C(C)(F)F)c3)C2=O)cc1-c1ccccc1 (stereo not drawn) [Compound 224, 1-(5-(4-chlorobenzyl)-6-methoxy-[1,1’-biphenyl]-3-yl)-N-(3-(1,1-difluoroethyl)phenyl)-3-methyl-5-oxo-4,5-dihydro-1H-pyrazole-4-carboxamide]	1 to 100
CCCc1cc(N2N=C(C)C(C(=O)Nc3cccc(C(F)(F)CC)c3)C2=O)cc(-c2ccccc2)c1OC (stereo not drawn) [Compound 225, N-(3-(1,1-difluoropropyl)phenyl)-1-(6-methoxy-5-propyl-[1,1’-biphenyl]-3-yl)-3-methyl-5-oxo-4,5-dihydro-1H-pyrazole-4-carboxamide]	1 to 100
CCC(F)(F)c1cccc(NC(=O)c2cc(C)nc(-c3cc(C)cc(-c4ccccc4)c3)n2)c1 [Compound 226, N-(3-(1,1-difluoropropyl)phenyl)-6-methyl-2-(5-methyl-[1,1′-biphenyl]-3-yl)pyrimidine-4-carboxamide]	> 100
COc1c(Cc2ccc(O)cc2)cc(N2N=C(C)C(C(=O)Nc3cccc(C(C)(F)F)c3)C2=O)cc1-c1ccccc1 (stereo not drawn) [Compound 228, N-(3-(1,1-difluoroethyl)phenyl)-1-(5-(4-hydroxybenzyl)-6-methoxy-[1,1′-biphenyl]-3-yl)-3-methyl-5-oxo-4,5-dihydro-1H-pyrazole-4-carboxamide]	1 to 100
CCC(F)(F)c1cccc(NC(=O)C2C(=O)N(c3cc(Cc4ccc(Cl)cc4)c(OC)c(-c4ccccc4)c3)N=C2C)c1 (stereo not drawn) [Compound 236, 1-(5-(4-chlorobenzyl)-6-methoxy-[1,1′-biphenyl]-3-yl)-N-(3-(1,1-difluoropropyl)phenyl)-3-methyl-5-oxo-4,5-dihydro-1H-pyrazole-4-carboxamide]	1 to 100

Continued, values first:

IC50 [nM]	Compound
< 1	COc1ccc(N2N=C(C)C(F)(C(=O)Nc3cccc(C(C)(F)F)c3)C2=O)cc1 (stereo not drawn) [Compound 209, N-(3-(1,1-difluoroethyl)phenyl)-4-fluoro-1-(4-methoxyphenyl)-3-methyl-5-oxo-4,5-dihydro-1H-pyrazole-4-carboxamide]
> 100	CCC(F)(F)c1cccc(NC(=O)c2oc(-c3ccc(OC(F)F)c(-c4ccccn4)c3)nc2C)c1 [Compound 214, 2-(4-(difluoromethoxy)-3-(pyridin-2-yl)phenyl)-N-(3-(1,1-difluoropropyl)phenyl)-4-methyloxazole-5-carboxamide]
> 100	CCC(F)(F)c1cccc(NC(=O)c2nc(-c3ccc(OC(F)F)cc3)[nH]c2C)c1 [Compound 215, 2-(4-(difluoromethoxy)phenyl)-N-(3-(1,1-difluoropropyl)phenyl)-5-methyl-1H-imidazole-4-carboxamide]
> 100	CCC(F)(F)c1cccc(NC(=O)c2cc(-c3ccc(OC(F)F)cc3)[nH]c2C)c1 [Compound 216, 5-[4-(difluoromethoxy)phenyl]-N-[3-(1,1-difluoropropyl)phenyl]-2-methyl-1H-pyrrole-3-carboxamide]
> 100	CCC(F)(F)c1cccc(NC(=O)c2nc(-c3ccc(OC(F)F)c(-c4ccccc4)c3)[nH]c2C)c1 [Compound 218, 2-(6-(difluoromethoxy)-[1,1′-biphenyl]-3-yl)-N-(3-(1,1-difluoropropyl)phenyl)-5-methyl-1 H-imidazole-4-carboxamide]
> 100	CCC(F)(F)c1cccc(NC(=O)c2nc(-c3ccc(OC(F)F)c(-c4cccnc4)c3)oc2C)c1 [Compound 221, 2-(4-(difluoromethoxy)-3-(pyridin-3-yl)phenyl)-N-(3-(1,1-difluoropropyl)phenyl)-5-methyloxazole-4-carboxamide]
> 100	CCC(F)(F)c1cccc(NC(=O)c2cc(-c3ccc(OC(F)F)cn3)[nH]c2C)c1 [Compound 222, 5-(5-(difluoromethoxy)pyridin-2-yl)-N-(3-(1,1-difluoropropyl)phenyl)-2-methyl-1H-pyrrole-3-carboxamide]
> 100	CCC(F)(F)c1cccc(NC(=O)c2nc(-c3ccc(OC(F)F)cn3)[nH]c2C)c1 [Compound 227, 2-(5-(difluoromethoxy)pyridin-2-yl)-N-(3-(1,1-difluoropropyl)phenyl)-5-methyl-1H-imidazole-4-carboxamide]
1 to 100	CCC(F)(F)c1cccc(NC(=O)c2c(C)nn(-c3ccc(OC)cc3)c2F)c1 [Compound 229, N-(3-(1,1-difluoropropyl)phenyl)-5-fluoro-1-(4-methoxyphenyl)-3-methyl-1H-pyrazole-4-carboxamide]
> 100	CCC(F)(F)c1cccc(NC(=O)c2c(C)nn(-c3ccc(OC)cc3)c2C(C)=O)c1 [Compound 230, 5-acetyl-N-(3-(1,1-difluoropropyl)phenyl)-1-(4-methoxyphenyl)-3-methyl-1H-pyrazole-4-carboxamide]
> 100	CCC(F)(F)c1cccc(NC(=O)c2c(C)nn(-c3ccc(OC)cc3)c2Cl)c1 [Compound 231, 5-chloro-N-(3-(1,1-difluoropropyl)phenyl)-1-(4-methoxyphenyl)-3-methyl-1H-pyrazole-4-carboxamide]
> 100	CCC(F)(F)c1cccc(NC(=O)c2n[nH]c(-c3ccc(OC)cc3)c2C(C)=O)c1 [Compound 232, 4-acetyl-N-(3-(1,1-difluoropropyl)phenyl)-5-(4-methoxyphenyl)-1 H-pyrazole-3-carboxamide]
> 100	CCC(F)(F)c1cccc(NC(=O)c2n[nH]c(-c3ccc(OC)cc3)c2Br)c1 [Compound 233]
> 100	CCC(F)(F)c1cccc(NC(=O)c2c(C)nn(-c3ccc(OC)cc3)c2C(=O)OC)c1 [Compound 234, methyl 4-((3-(1,1-difluoropropyl)phenyl)carbamoyl)-1-(4-methoxyphenyl)-3-methyl-1H-pyrazole-5-carboxylate]
> 100	CCC(F)(F)c1cccc(NC(=O)c2c(C)[nH]c(-c3ccc(OC)cc3)c2O)c1 [Compound 235, N-(3-(1,1-difluoropropyl)phenyl)-4-hydroxy-5-(4-methoxyphenyl)-2-methyl-1H-pyrrole-3-carboxamide]
1 to 100	COc1ccc(-c2ncc(C)c(C(=O)Nc3cccc(C(C)(F)F)c3)n2)cc1 [Compound 247, N-(3-(1,1-difluoroethyl)phenyl)-2-(4-methoxyphenyl)-5-methylpyrimidine-4-carboxamide]
< 1	CCC(F)(F)c1cccc(NC(=O)c2c(C)[nH]c(-c3ccc(OC)cc3)[n+]2[O-])c1 [Compound 248, 4-((3-(1,1-difluoropropyl)phenyl)carbamoyl)-2-(4-methoxyphenyl)-5-methyl-1H-imidazole 3-oxide]
< 1	CCC(F)(F)c1cccc(NC(=O)c2c(C)[nH]c(-c3ccc(OC)c(-c4ncccc4C)c3)[n+]2[O-])c1 [Compound 249, 4-((3-(1,1-difluoropropyl)phenyl)carbamoyl)-2-(4-methoxy-3-(3-methylpyridin-2-yl)phenyl)-5-methyl-1H-imidazole 3-oxide]
> 100	CCC(F)(F)c1cccc(NC(=O)c2c(C)oc(-c3ccc(OC)cc3)[n+]2[O-])c1 [Compound 250, 4-((3-(1,1-difluoropropyl)phenyl)carbamoyl)-2-(4-methoxyphenyl)-5-methyloxazole 3-oxide]
